SMILES strings stand for the structures. pIC50: −log10 of the molar value. Calls of active or inactive are those of the source. The calls are words filed in the database; no cut-off is given here.

One series deals with Acetylcholinesterase (Electrophorus electricus, UniProt O42275). As to the kind of experiment: Inhibition of electric eel AChE using acetylthiocholine chloride as substrate incubated for 15 mins by Ellman's method.
Series [1] deals with Acetylcholinesterase (Electrophorus electricus) (UniProt O42275). As to the kind of experiment: Mixed type inhibition of electric eel AChE using acetylthiocholine chloride as substrate preincubated for 15 mins followed by substrate addition by reciprocal plot analysis.
Sequence of Acetylcholinesterase (Electrophorus electricus) (O42275 24-633 limits assumed): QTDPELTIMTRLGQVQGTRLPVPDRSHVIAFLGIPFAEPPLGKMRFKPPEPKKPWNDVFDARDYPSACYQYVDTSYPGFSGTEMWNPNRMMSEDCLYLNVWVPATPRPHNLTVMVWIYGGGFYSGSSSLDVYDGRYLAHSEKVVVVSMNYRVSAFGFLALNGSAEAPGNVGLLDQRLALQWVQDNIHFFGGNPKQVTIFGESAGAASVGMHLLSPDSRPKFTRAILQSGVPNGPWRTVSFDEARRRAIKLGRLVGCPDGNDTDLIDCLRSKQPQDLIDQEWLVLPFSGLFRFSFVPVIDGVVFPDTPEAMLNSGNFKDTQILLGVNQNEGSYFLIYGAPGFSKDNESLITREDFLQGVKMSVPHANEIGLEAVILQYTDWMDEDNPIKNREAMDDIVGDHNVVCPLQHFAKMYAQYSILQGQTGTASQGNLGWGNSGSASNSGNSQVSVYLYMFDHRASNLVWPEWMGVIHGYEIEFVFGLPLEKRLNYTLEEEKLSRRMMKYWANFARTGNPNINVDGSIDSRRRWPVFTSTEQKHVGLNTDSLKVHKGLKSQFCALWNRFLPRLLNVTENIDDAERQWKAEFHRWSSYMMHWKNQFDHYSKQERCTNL
The subject of series [2] is Drosophila melanogaster. As to the kind of experiment: In vivo inhibition of AChE in Elav-GAL4/UAS-Abeta42 hybrid Drosophila melanogaster assessed as reduction in intracephalic AChE levels by HPLC analysis. The class given is functional. The conditions noted are these: dose 0.1-10 µM.
The species named for a further series is Homo sapiens. As to the kind of experiment: Inhibition of self-induced amyloid beta (1 to 42) (unknown origin) aggregation at 10 uM after 48 hrs by thioflavin-T fluorescence method relative to control.
Series [3] is described as follows: (§1) Inhibition of amyloid beta42 secretion in human SH-SY5Y cells overexpressing human APP Swedish mutant at 1 uM incubated for 24 hrs by ELISA. Format: functional.
Another series concerns SH-SY5Y. Described as §1. The class given is functional.
In another series the test system is Caenorhabditis elegans. As to the kind of experiment: Induction of autophagy in Caenorhabditis elegans BC12921 expressing SQST-1-GFP fusion protein assessed as decrease in fluorescence intensity at 1 uM by microplate reader analysis. Format: functional. On the set-up: scale not given: the % may be the effect or the level left.
In series [4] the test system is Drosophila melanogaster. As to the kind of experiment: In vivo inhibition of AChE in Elav-GAL4/UAS-Abeta42 hybrid Drosophila melanogaster assessed as reduction in intracephalic AChE levels at 0.1 to 10 uM by HPLC analysis. The class given is functional. The following applies: dose 0.1-10 µM.
The nature of another series: in vitro. The following applies: PAMPA.

Sequence of Acetylcholinesterase (O42275 whole entry): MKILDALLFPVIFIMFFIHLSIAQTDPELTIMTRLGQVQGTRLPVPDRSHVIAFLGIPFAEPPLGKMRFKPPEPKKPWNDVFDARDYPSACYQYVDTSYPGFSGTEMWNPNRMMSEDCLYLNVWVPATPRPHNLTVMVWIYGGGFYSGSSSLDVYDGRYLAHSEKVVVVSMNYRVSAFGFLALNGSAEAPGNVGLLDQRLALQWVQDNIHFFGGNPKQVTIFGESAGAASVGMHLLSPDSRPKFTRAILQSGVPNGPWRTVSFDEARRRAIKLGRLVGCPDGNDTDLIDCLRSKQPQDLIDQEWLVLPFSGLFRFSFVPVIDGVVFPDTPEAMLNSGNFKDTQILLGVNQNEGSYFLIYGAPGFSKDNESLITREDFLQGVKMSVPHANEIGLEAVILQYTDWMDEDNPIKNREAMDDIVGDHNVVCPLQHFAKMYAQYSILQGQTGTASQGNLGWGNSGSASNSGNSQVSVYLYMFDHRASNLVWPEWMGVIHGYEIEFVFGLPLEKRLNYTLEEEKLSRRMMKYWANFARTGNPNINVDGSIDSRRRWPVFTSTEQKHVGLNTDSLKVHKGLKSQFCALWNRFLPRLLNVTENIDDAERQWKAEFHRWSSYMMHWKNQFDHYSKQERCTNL
Description for in vitro: Effective permeability of the compound in PBS/ethanol buffer (9:1) at 25 ug/ml after 10 hrs by UV plate reader based PAMPA-BBB assay

Turning to `O=C(CCN1CCCCC1)Nc1c(Cl)ccc2c1-c1nccc3cccc(c13)C2=O`, the pIC50 against Acetylcholinesterase is 7.55. In addition, the inhibition entry (in [1]; in the series on SH-SY5Y; in the series with Drosophila melanogaster [4]) was “Active” throughout. Moreover, the inhibition result with Drosophila melanogaster [2] is “Dose-dependent effect”; in the series filed under Homo sapiens, 74.6%. Moreover, testing at 1 µM in series [3] gave an inhibition of 46%. For the same molecule, in the series on Caenorhabditis elegans, the Activity is recorded as 26.5%. Also, the Papp at 10 h, 25 ug/ml in “in vitro” turned out to be 8.24 ×10⁻⁶ cm/s.
For the molecule `O=C(CN1CCCCC1)Nc1c(Cl)ccc2c1-c1nccc3cccc(c13)C2=O`, at Acetylcholinesterase, the pIC50 is 7.49. Moreover, the inhibition entry in the series with Drosophila melanogaster [2] was “Dose-dependent effect”; in the series filed under Homo sapiens, 51.3%. In addition, the inhibition result in the series with SH-SY5Y was “Active”. The Papp at 10 h, 25 ug/ml in “in vitro” turned out to be 1.36 ×10⁻⁶ cm/s.
For the molecule `O=C(CCCN1CCCCC1)Nc1cccc2c1C(=O)c1cccc3ccnc-2c13`, the pIC50 on Acetylcholinesterase was 6.73. The inhibition result in the series on Drosophila melanogaster [2] was “Dose-dependent effect”; in the series filed under Homo sapiens it was 61.3%. Also, in the series with SH-SY5Y, the inhibition result is “Active”. In addition, in “in vitro”, the Papp at 10 h, 25 ug/ml is 1.52 ×10⁻⁶ cm/s.
`O=C(CCN1CCCCC1)Nc1cccc2c1C(=O)c1cccc3ccnc-2c13` gave a pIC50 against Acetylcholinesterase of 7.09. Besides, the inhibition entry (in [1]; with SH-SY5Y; in the series on Drosophila melanogaster [4]) was “Active” throughout. Besides, the inhibition result with Drosophila melanogaster [2] is “Dose-dependent effect”; in the series listed under Homo sapiens, 76.1%. Also, the Activity with Caenorhabditis elegans was determined as 28%. The same molecule had a Papp at 10 h, 25 ug/ml in the series “in vitro” of 2.54 ×10⁻⁶ cm/s.
On Acetylcholinesterase, `O=C(CCCCN1CCCCC1)Nc1c(Cl)ccc2c1-c1nccc3cccc(c13)C2=O` showed a pIC50 of 5.74. The inhibition result is “Dose-dependent effect” in the series on Drosophila melanogaster [2] and 71.2% in the series filed under Homo sapiens. Besides, in the series “in vitro”, the Papp at 10 h, 25 ug/ml amounted to 1.74 ×10⁻⁶ cm/s.
For `O=C(CN1CCCCC1)Nc1cccc2c1C(=O)c1cccc3ccnc-2c13` the same measures were 6.81, “Dose-dependent effect”, 57.6% and 1.63 ×10⁻⁶ cm/s.
On to `COc1cc(/C=C/C(=O)CC(=O)/C=C/c2ccc(O)c(OC)c2)ccc1O`, for which the inhibition in the series filed under Homo sapiens is 45.1%.
In turn, `O=C(CCCCCN1CCCCC1)Nc1c(Cl)ccc2c1-c1nccc3cccc(c13)C2=O` showed a pIC50 at Acetylcholinesterase of 6.42. The inhibition result is “Dose-dependent effect” in the series with Drosophila melanogaster [2] and 67.7% in the series listed under Homo sapiens. The molecule also yielded a Papp at 10 h, 25 ug/ml in the series “in vitro” of 2.72 ×10⁻⁶ cm/s.
Consider `O=C(CCCCN1CCCCC1)Nc1cccc2c1C(=O)c1cccc3ccnc-2c13`, for which the pIC50 on Acetylcholinesterase is 6.01. Also, the inhibition result in the series on Drosophila melanogaster [2] was “Dose-dependent effect”; in the series filed under Homo sapiens it was 52.5%. In the series “in vitro”, this molecule returned a Papp at 10 h, 25 ug/ml of 6.59 ×10⁻⁶ cm/s.
In turn, `O=C(CCCCCN1CCCCC1)Nc1cccc2c1C(=O)c1cccc3ccnc-2c13` showed a pIC50 on Acetylcholinesterase of 6.33. The inhibition result in the series on Drosophila melanogaster [2] is “Dose-dependent effect”; in the series filed under Homo sapiens, 55.7%. The molecule also came in with a Papp at 10 h, 25 ug/ml in the series “in vitro” of 4.92 ×10⁻⁶ cm/s.
For the molecule `O=C(CCCN1CCCCC1)Nc1c(Cl)ccc2c1-c1nccc3cccc(c13)C2=O`, the pIC50 at Acetylcholinesterase was 6.83. In addition, the inhibition entry in the series with Drosophila melanogaster [2] was “Dose-dependent effect”; in the series filed under Homo sapiens, 78.4%. Besides, in the series with Drosophila melanogaster [4], the inhibition result was “Active”. The molecule further had a Papp at 10 h, 25 ug/ml in “in vitro” of 2.44 ×10⁻⁶ cm/s.

The record behind these values is ChEMBL document CHEMBL4715782, “Multitarget-directed oxoisoaporphine derivatives: Anti-acetylcholinesterase, anti-β-amyloid aggregation and enhanced autophagy activity against Alzheimer's disease” (Bioorg Med Chem, 2016).
